In ChEMBL document CHEMBL1201862, “PubChem BioAssay data set” (2004):
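Where inhibition never reached the appropriate level, the endpoint shown equals the highest concentration tested. Otherwise, values were interpolated linearly from a five-concentration, 48-hour dose response in 96-well plates. At the GI50, growth is halved.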 Active and inactive are the calls of the source. No stated cut-off is given here; in the data, active = GI50 up to about 1.1 µM and inactive = higher.

Columns and labels:
Test in all cases: NCI-60 cell line screen, 48 h
SK-MEL-5 = system: SK-MEL-5
SNB-19 = system: SNB-19
NCI-H226 = system: NCI-H226
BT-549 = system: BT-549
A549 = system: A549
SNB-75 = system: SNB-75
MCF7 = system: MCF7
A498 = system: A498
HOP-92 = system: HOP-92
EKVX = system: EKVX
786-0 = system: 786-0
DU-145 = system: DU-145
HCT-15 = system: HCT-15
HT-29 = system: HT-29
HCC 2998 = system: HCC 2998
MDA-MB-435 = system: MDA-MB-435
OVCAR-3 = system: OVCAR-3
SF-295 = system: SF-295
LOX IMVI = system: LOX IMVI
OVCAR-4 = system: OVCAR-4
UO-31 = system: UO-31
ACHN = system: ACHN
U-251 = system: U-251
HL-60 = system: HL-60
HCT-116 = system: HCT-116
SW-620 = system: SW-620
OVCAR-5 = system: OVCAR-5
OVCAR-8 = system: OVCAR-8
SK-MEL-28 = system: SK-MEL-28
NCI-H522 = system: NCI-H522
CCRF-CEM = system: CCRF-CEM
T47D = system: T47D
RPMI-8226 = system: RPMI-8226
UACC-257 = system: UACC-257
MOLT-4 = system: MOLT-4
SR = system: SR
COLO 205 = system: COLO 205
RXF 393 = system: RXF 393
NCI-H23 = system: NCI-H23
PC-3 = system: PC-3
TK-10 = system: TK-10
SK-MEL-2 = system: SK-MEL-2
HOP-62 = system: HOP-62
K562 = system: K562
SF-539 = system: SF-539
M14 = system: M14
IGROV-1 = system: IGROV-1
MDA-N = system: MDA-N
MDA-MB-231 = system: MDA-MB-231
SF-268 = system: SF-268
NCI-H460 = system: NCI-H460
SK-OV-3 = system: SK-OV-3
Malme-3M = system: Malme-3M
KM12 = system: KM12
SN12C = system: SN12C
NCI/ADR-RES = system: NCI/ADR-RES
CAKI-1 = system: CAKI-1
Hs-578T = system: Hs-578T
UACC-62 = system: UACC-62

SMILES: CN1C(=O)c2ccccc2OC12C=Cc1c(ccc3ccccc13)O2 (stereo not drawn)
- GI50 (SK-MEL-5): 6.05 µM (inactive)
- GI50 (SNB-19): 4.49 µM (inactive)
- GI50 (NCI-H226): 5.94 µM (inactive)
- GI50 (BT-549): 5.96 µM (inactive)
- GI50 (A549): 3.47 µM (inactive)
- GI50 (SNB-75): 4.84 µM (inactive)
- GI50 (MCF7): 4.4 µM (inactive)
- GI50 (A498): 12.9 µM (inactive)
- GI50 (HOP-92): 1.85 µM (inactive)
- GI50 (EKVX): 2.32 µM (inactive)
- GI50 (786-0): 7.19 µM (inactive)
- GI50 (DU-145): 8 µM (inactive)
- GI50 (HCT-15): 2.95 µM
- GI50 (HT-29): 2.92 µM (inactive)
- GI50 (HCC 2998): 3.95 µM (inactive)
- GI50 (MDA-MB-435): 2.29 µM (inactive)
- GI50 (OVCAR-3): 4.03 µM (inactive)
- GI50 (SF-295): 2.45 µM (inactive)
- GI50 (LOX IMVI): 5.93 µM (inactive)
- GI50 (OVCAR-4): 5.56 µM (inactive)
- GI50 (UO-31): 6.52 µM (inactive)
- GI50 (ACHN): 3.1 µM (inactive)
- GI50 (U-251): 3.42 µM (inactive)
- GI50 (HL-60): 2.99 µM (inactive)
- GI50 (HCT-116): 4.02 µM (inactive)
- GI50 (SW-620): 3.64 µM (inactive)
- GI50 (OVCAR-5): 6.47 µM (inactive)
- GI50 (OVCAR-8): 3.74 µM (inactive)
- GI50 (SK-MEL-28): 14.2 µM (inactive)
- GI50 (NCI-H522): 0.682 µM (active)
- GI50 (CCRF-CEM): 3.83 µM (inactive)
- GI50 (T47D): 5.43 µM (inactive)
- GI50 (RPMI-8226): 3.02 µM (inactive)
- GI50 (UACC-257): 8.3 µM (inactive)
- GI50 (MOLT-4): 3.53 µM (inactive)
- GI50 (SR): 3.48 µM (inactive)
- GI50 (COLO 205): 3.31 µM (inactive)
- GI50 (RXF 393): 3.85 µM (inactive)
- GI50 (NCI-H23): 4.05 µM (inactive)
- GI50 (PC-3): 3.27 µM (inactive)
- GI50 (TK-10): 7.82 µM (inactive)
- GI50 (SK-MEL-2): 3.34 µM (inactive)
- GI50 (HOP-62): 4.29 µM (inactive)
- GI50 (K562): 2.82 µM (inactive)
- GI50 (SF-539): 5.58 µM (inactive)
- GI50 (M14): 3.03 µM (inactive)
- GI50 (IGROV-1): 3.5 µM (inactive)
- GI50 (MDA-N): 2.36 µM (inactive)
- GI50 (MDA-MB-231): 13.1 µM (inactive)
- GI50 (SF-268): 3.78 µM (inactive)
- GI50 (NCI-H460): 6.59 µM (inactive)
- GI50 (SK-OV-3): 5.78 µM (inactive)
- GI50 (Malme-3M): 0.328 µM (active)
- GI50 (KM12): 2.21 µM (inactive)
- GI50 (SN12C): 15.2 µM (inactive)
- GI50 (NCI/ADR-RES): 2.38 µM (inactive)
- GI50 (CAKI-1): 5.66 µM (inactive)
- GI50 (Hs-578T): 3.85 µM (inactive)
- GI50 (UACC-62): 5.19 µM (inactive)

SMILES: COc1cc2cc3c4c(cc(OC)c(OC)c4c2cc1OC)CCN3C
- GI50 (SK-MEL-5): 6.03 µM (inactive)
- GI50 (SNB-19): 12.5 µM (inactive)
- GI50 (NCI-H226): 7.35 µM (inactive)
- GI50 (BT-549): 6.46 µM (inactive)
- GI50 (A549): 9.53 µM (inactive)
- GI50 (SNB-75): 8.13 µM (inactive)
- GI50 (MCF7): 2.63 µM (inactive)
- GI50 (A498): 6.84 µM (inactive)
- GI50 (HOP-92): 9.93 µM (inactive)
- GI50 (EKVX): 15.3 µM (inactive)
- GI50 (786-0): 4.29 µM (inactive)
- GI50 (DU-145): 4.97 µM (inactive)
- GI50 (HCT-15): 6.84 µM
- GI50 (HT-29): 6.89 µM (inactive)
- GI50 (HCC 2998): 7.41 µM (inactive)
- GI50 (MDA-MB-435): 5.56 µM (inactive)
- GI50 (OVCAR-3): 8.05 µM (inactive)
- GI50 (SF-295): 3.07 µM (inactive)
- GI50 (LOX IMVI): 5.25 µM (inactive)
- GI50 (OVCAR-4): 2.51 µM (inactive)
- GI50 (UO-31): 2.11 µM (inactive)
- GI50 (ACHN): 3.66 µM (inactive)
- GI50 (U-251): 3.58 µM (inactive)
- GI50 (HL-60): 5.3 µM (inactive)
- GI50 (HCT-116): 5.96 µM (inactive)
- GI50 (SW-620): 7.36 µM (inactive)
- GI50 (OVCAR-5): 21 µM (inactive)
- GI50 (OVCAR-8): 12.7 µM (inactive)
- GI50 (SK-MEL-28): 18.1 µM (inactive)
- GI50 (NCI-H522): 2.58 µM (inactive)
- GI50 (CCRF-CEM): 1.36 µM (inactive)
- GI50 (T47D): 1.67 µM (inactive)
- GI50 (RPMI-8226): 2.72 µM (inactive)
- GI50 (UACC-257): 9.12 µM (inactive)
- GI50 (MOLT-4): 2.41 µM (inactive)
- GI50 (SR): 1.25 µM (inactive)
- GI50 (COLO 205): 7.64 µM (inactive)
- GI50 (RXF 393): 1.83 µM (inactive)
- GI50 (NCI-H23): 12.8 µM (inactive)
- GI50 (PC-3): 3.52 µM (inactive)
- GI50 (TK-10): 4.42 µM (inactive)
- GI50 (SK-MEL-2): 10.3 µM (inactive)
- GI50 (HOP-62): 11.9 µM (inactive)
- GI50 (K562): 6.19 µM (inactive)
- GI50 (SF-539): 9.25 µM (inactive)
- GI50 (M14): 6.9 µM (inactive)
- GI50 (IGROV-1): 4.21 µM (inactive)
- GI50 (MDA-N): 13.1 µM (inactive)
- GI50 (MDA-MB-231): 7.73 µM (inactive)
- GI50 (SF-268): 8.53 µM (inactive)
- GI50 (NCI-H460): 2.65 µM (inactive)
- GI50 (SK-OV-3): 9.18 µM (inactive)
- GI50 (Malme-3M): 8.53 µM (inactive)
- GI50 (KM12): 11 µM (inactive)
- GI50 (SN12C): 7.38 µM (inactive)
- GI50 (NCI/ADR-RES): 4.2 µM (inactive)
- GI50 (CAKI-1): 4.86 µM (inactive)
- GI50 (Hs-578T): 2.63 µM (inactive)
- GI50 (UACC-62): 4.83 µM (inactive)
